The values below are quoted from earlier work in patent publication US8541386B2, “Cannabinoid 2 (CB2) receptor gene promoter and unique RNA transcripts in B cells and methods of use” (University of South Florida, priority 2009, dated 2013).

Structures are written as SMILES.

This data set concerns IL-4/anti-CD40 stimulated B cells. The following applies: co-treatment of IL-4/anti-CD40 stimulated B cells; earlier work of the inventors' lab.

Turning to `CCCCCCC(C)(C)c1ccc([C@@H]2C[C@H](O)CC[C@H]2CCCO)c(O)c1` [CP55940], the “immunoglobulin class switching to IgE” value is reported as “increased immunoglobulin class switching to IgE”.
